The values that follow come from US6743929B1, “Sulfonylalkanoylamino hydroxyethylamino sulfonamides useful as retroviral protease inhibitors” (G. D. Searle & Co., priority 1992, dated 2004).

The structures appear in SMILES notation. Where two headings read alike, the source gives them in different places.

In data set [1] the test system is HIV-1. Put plainly: CEM cell assay: HIV inhibition in acutely infected cells (MTT). In kind it is cell-based. The following applies: Human immunodeficiency virus 1, CCRF-CEM, 168 h. As for the experimental part:
The effectiveness of compounds of the present invention were determined in a CEM cell assay.
(§1) The HIV inhibition assay method of acutely infected cells is an automated tetrazolium based calorimetric assay essentially that reported by Pauwles et al, J. Virol. Methods, 20, 309-321 (1988). Assays were performed in 96-well tissue culture plates. CEM cells, a CD4+ cell line, were grown in RPMI-1640 medium (Gibco) supplemented with a 10% fetal calf serum and were then treated with polybrene (2 μg/ml). An 80 μl volume of medium containing 1×10^4 cells was dispensed into each well of the tissue culture plate. To each well was added a 100 μl volume of tesc compound dissolved in tissue culture medium (or medium without test compound as a control) to achieve the desired final concentration and the cells were incubated at 37° C. for 1 hour. A frozen culture of HIV-1 was diluted in culture medium to a concentration of 5×10^4 TCID50 per ml (TCID50=the dose of virus that infects 50% of cells in tissue culture), and a 20 μL volume of the virus sample (containing 1000 TCID50 of virus) was added to wells containing test compound and to wells containing only medium (infected control cells). Several wells received culture medium without virus (uninfected control cells). Likewise, the intrinsic toxicity of the test compound was determined by adding medium without virus to several wells containing test compound. In summary, the tissue culture plates contained the following experiments:
(§2) In experiments 2 and 4 the final concentrations of test compounds were 1, 10, 100 and 500 μg/ml. Either azidothymidine (AZT) or dideoxyinosine (ddI) was included as a positive drug control. […] DMSO was added to all control wells at an appropriate concentration.
(§3) Following the addition of virus, cells were incubated at 37° C. in a humidified, 5% CO2 atmosphere for 7 days. Test compounds could be added on days 0, 2 and 5 if desired. On day 7, post-infection, the cells in each well were resuspended and a 100 μl sample of each cell suspension was removed for assay. A 20 μL volume of a 5 mg/ml solution of 3-(4,5-dimethylthiazol-2-yl)-2,5-diphenyltetrazolium bromide (MTT) was added to each 100 μL cell suspension, and the cells were incubated for 4 hours at […] in a 5% CO2 environment. […] To each sample was added 100 μl of 10% sodium dodecylsulfate in 0.01 N HCl to lyse the cells, and samples were incubated overnight. The absorbance at 590 nm was determined for each sample using a Molecular Devices microplate reader. Absorbance values for each set of wells is compared to assess viral control infection, uninfected control cell response as well as test compound by cytotoxicity and antiviral efficacy.

Data set [2] deals with CEM cells. Put plainly: CEM cell assay: intrinsic toxicity of test compound in uninfected cells (MTT). The note with it: Table 10, CEM cells without virus, 7 days. In kind it is cell-based. As for the experimental part:
as §1, §2, §3

In data set [3] the target is T1, HIV protease (Human immunodeficiency virus type 1 group M subtype B, UniProt P04585).
T1 construct: HIV protease is diluted in the assay buffer to a final enzyme concentration of 12.3 nanomolar, based on a molecular weight of 10,780
Put plainly: HIV protease enzyme assay (fluorogenic substrate 2-aminobenzoyl-Ile-Nle-Phe(p-NO2)-Gln-ArgNH2). In kind it is biochemical. The text has this: The compounds of the present invention are effective HIV protease inhibitors. Utilizing an enzyme assay as described below, the compounds set forth in the examples herein disclosed inhibited the HIV enzyme. The preferred compounds of the present invention and their calculated IC50 (inhibiting concentration 50%, i.e., the concentration at which the inhibitor compound reduces enzyme activity by 50%) values are sh6wn in Table 16. The enzyme method is described below. The substrate is 2-aminobenzoyl-Ile-Nle-Phe(p-NO2)-Gln-ArgNH2. The positive control is MVT-101 (Miller, M. et al, Science, 246, 1149 (1989)] The assay conditions are as follows:
The above described substrate is dissolved in DMSO, then diluted 10 fold in assay buffer. Final substrate concentration in the assay is 80 μM.
HIV protease is diluted in the assay buffer to a final enzyme concentration of 12.3 nanomolar, based on a molecular weight of 10,780.
The final concentration of DMSO is 14% and the final concentration of glycerol is 18%. The test compound is dissolved in DMSO and diluted in DMSO to 10×the test concentration; 10 μl of the enzyme preparation is added, the materials mixed and then the mixture is incubated at ambient temperature for 15 minutes. The enzyme reaction is initiated by the addition of 40 μl of substrate. The increase in fluorescence is monitored at 4 time points (0, 8, 16 and 24 minutes) at ambient temperature. Each assay is carried out in duplicate wells.

Where [4] appears, read: Table 10, CEM cells infected with HIV-1, 7 days, MTT, read-out: EC50.

For `COc1ccc(S(=O)(=O)N(CCC(C)C)C[C@@H](O)[C@H](Cc2ccccc2)NC(=O)[C@H](C)CS(C)(=O)=O)cc1` (relative stereo) [Example 2, Propanamide, N-[2-Hydroxy-3-[(3-methylbutyl)(4-methoxyphenylsulfonyl)aminol-1-(phenylmethyl)propyl]-2-methyl-3-(methylsulfonyl)-[1S-[1R*(R*),2S*]]-], in data set [1] (setting [4]), the EC50 – broadly, the midpoint of the concentration-response curve – was 12 nM. The “TD50 (nM)” value in data set [2] is listed as 90,000 nM. Moreover, in data set [3], inhibition was half-maximal at 3.2 nM (IC50).
Turning to `CC(C)CN(C[C@@H](O)[C@H](Cc1ccccc1)NC(=O)[C@H](C)CS(C)(=O)=O)S(=O)(=O)c1ccccc1` (relative stereo) [Example 3, Propanamide, N-[2-Hydroxy-3-[(2-methylpropyl)(phenylsulfonyl)amino]-1-(phenylmethyl)propyl]-2-methyl-3-(methylsulfonyl)-, [1S-[1R*(R*),2S*]]-], the EC50 in data set [1] (setting [4]) was 10 nM. Moreover, the “TD50 (nM)” value in data set [2] is on record as 213,000 nM. The IC50 – broadly, the concentration that gives 50% inhibition – in data set [3] was determined as 3.2 nM.
For the compound `CC(C)CCN(C[C@@H](O)[C@H](Cc1ccccc1)NC(=O)[C@H](C)CS(C)(=O)=O)S(=O)(=O)c1ccccc1` (relative stereo) [Example 4, Propanamide, N-[2-Hydroxy-3-[(3-methylbutyl)(phenylsulfonyl)amino]-1-(phenylmethyl)propyl]-2-methyl-3-(methylsulfonyl)-. [1S-[1R*(R*), 2S*]]-], the half-maximal effective concentration (EC50) in data set [1] (setting [4]) was determined as 12 nM. Further, in data set [2], the “TD50 (nM)” value is given as >1,000,000 nM. Also, in data set [3], 3 nM corresponded to half-maximal inhibition (IC50).
Take `CCCN(C[C@@H](O)[C@H](Cc1ccccc1)NC(=O)[C@H](C)CS(C)(=O)=O)S(=O)(=O)c1ccccc1` (relative stereo) [Example 5, Propanamide, N-[2-Hydroxy-3-(propyl)(phenylsulfonyl)amino]-1-(phenylmethyl)propyl]-2-methyl-3-(methylsulfonyl)-, [1S-[1R* (R*), 2S*]]-]: in data set [1] (setting [4]), the EC50 worked out at 25 nM. For the same compound, the “TD50 (nM)” value in data set [2] was 438,000 nM. In data set [3], this compound returned an IC50 of 13 nM.
As for `CCCCN(C[C@@H](O)[C@H](Cc1ccccc1)NC(=O)[C@H](C)CS(C)(=O)=O)S(=O)(=O)c1ccccc1` (relative stereo) [Example 6, Propanamide, N-[2-Hydroxy-3-(butyl)(phenylsulfonyl)amino]-1-(phenylmethyl)propyl]-2-methyl-3-(methylsulfonyl)-. [1S-[1R*(R*),2S*]]-], in data set [1] (setting [4]), the EC50 is 29 nM. Besides, the “TD50 (nM)” value in data set [2] was 133,000 nM. The IC50 in data set [3] came to 8.8 nM.
`COc1ccc(S(=O)(=O)N(CC(C)C)C[C@@H](O)[C@H](Cc2ccccc2)NC(=O)[C@H](C)CS(C)(=O)=O)cc1` (relative stereo) [Example 7, propanamide, N-[2-Hydroxy-3-[(2-methylpropyl)(4-methoxyphenylsulfonyl)amino]-1-(phenylmethyl)propyl]-2-methyl-3-(methylsulfonyl)-,[1S-[1R*(R*),2S*]]-]: the EC50 in data set [1] (setting [4]) amounted to 2 nM. Moreover, in data set [2], the “TD50 (nM)” value is recorded as >1,000,000 nM. Besides, the IC50 in data set [3] was 1.9 nM.
For the compound `CCCCN(C[C@@H](O)[C@H](Cc1ccccc1)NC(=O)[C@H](C)CS(C)(=O)=O)S(=O)(=O)c1ccc(OC)cc1` (relative stereo) [Example 8, Propanamide, N-[2-Hydroxy-3-[(butyl)(4-methoxyphenylsulfonyl)amino]-1-(phenylmethyl)propyl]-2-methyl-3-(methylsulfonyl)-,[1S-[1R*(R*),2S*]]-], in data set [1] (setting [4]), the EC50 turned out to be 9 nM. The “TD50 (nM)” value in data set [2] is reported as >1,000,000 nM. Further, inhibition in data set [3] was half-maximal at 3.1 nM (IC50).
For `CCCN(C[C@@H](O)[C@H](Cc1ccccc1)NC(=O)[C@H](C)CS(C)(=O)=O)S(=O)(=O)c1ccc(OC)cc1` (relative stereo) [Example 9, propanamide, N-[2-Hydroxy-3-[(propyl)(4-methoxyphenylsulfonyl)amino]-1-(phenylmethyl)propyl]-2-methyl-3-(methylsulfonyl)-,[1S-[1R*(R*),2S*]]-], the EC50 in data set [1] (setting [4]) was determined as 16 nM. Besides, in data set [2], the “TD50 (nM)” value was >1,000,000 nM. For the same compound, in data set [3], the concentration for half-maximal inhibition (IC50) stood at 4.1 nM.
`CC(=O)Nc1ccc(S(=O)(=O)N(CC(C)C)C[C@@H](O)[C@H](Cc2ccccc2)NC(=O)[C@H](C)CS(C)(=O)=O)cc1` (relative stereo) [Example 10, Propanamide, N-[2-Hydroxy-3-[(2-methylpropyl)(4-acetamido)phenylsulfonyl)amino]-1-(phenylmethyl)propyl]-2-methyl-3-(methylsulfonyl)-,[1S-[1R*(R*),2S*]]-]: the EC50 in data set [1] turned out to be 223 nM. Besides, in data set [2], the “TD50 (nM)” value is reported as 860,000 nM.
As to `CC(C)CCN(C[C@@H](O)[C@H](Cc1ccccc1)NC(=O)[C@H](C)CS(C)(=O)=O)S(=O)(=O)c1ccc(N)cc1` (relative stereo) [Example 11, Propanamide, N-[2-Hydroxy-3-[(3-methylbutyl)(4-aminophenylsulfonyl)amino]-1-(phenylmethyl)propyl]-2-methyl-3-(methylsulfonyl)-,[1S-[1R*(R*),2S*]]-], the EC50 in data set [1] (setting [4]) was found to be 45 nM. The “TD50 (nM)” value in data set [2] was 170,000 nM. In data set [3], this compound registered an IC50 of 7.8 nM.
Turning to `COc1ccc(S(=O)(=O)N(CC(C)C)C[C@@H](O)[C@H](Cc2ccccc2)NC(=O)[C@H](C)CS(C)(=O)=O)cc1OC` (relative stereo) [Example 12, Propanamide, N-[2-Hydroxy-3-[(2-methylpropyl)(3.4-dimethoxyphenylsulfonyl)amino]-1-(phenylmethyl)propyl]-2-methyl-3-(methylsulfonyl)-,[1S-[1R*(R*),2S*]]-], in data set [1] (setting [4]), the EC50 stood at 87 nM. For the same compound, in data set [2], the “TD50 (nM)” value is listed as 77,000 nM. Moreover, in data set [3], 38 nM corresponded to half-maximal inhibition (IC50).
